Laboratory results reported in PMC6407917, “Identification of GSK3186899/DDD853651 as a Preclinical Development Candidate for the Treatment of Visceral Leishmaniasis” (Journal of Medicinal Chemistry, 2018).

Key:
Assay in all cases: biochemical
Parameters in all cases: species or system HEK293/K-562/placenta mixed human extract; Kinobeads chemoproteomic competition binding, quantified by TMT LC-MS/MS, dose response up to 20 uM
[1] = molecular target: CSK (Homo sapiens, UniProt P41240)
[2] = molecular target: ACVR1 (Homo sapiens, UniProt Q04771)
[3] = molecular target: TNK2 (Homo sapiens, UniProt Q07912)
[4] = molecular target: NUAK2 (Homo sapiens, UniProt Q9H093)
[5] = molecular target: TAOK3 (Homo sapiens, UniProt Q9H2K8)
[6] = molecular target: PDPK1 (Homo sapiens, UniProt O15530)
[7] = molecular target: SYK (Homo sapiens, UniProt P43405)
[8] = molecular target: PIM3 (Homo sapiens, UniProt Q86V86)
[9] = molecular target: PIK3C3 (Homo sapiens, UniProt Q8NEB9)
[10] = molecular target: PLK1 (Homo sapiens, UniProt P53350)
[11] = molecular target: TGFBR1 (Homo sapiens, UniProt P36897)
[12] = molecular target: STRADA (Homo sapiens, UniProt Q7RTN6)
[13] = molecular target: PKN3 (Homo sapiens, UniProt Q6P5Z2)
[14] = molecular target: DSTYK (Homo sapiens, UniProt Q6XUX3)
[15] = molecular target: CHUK (Homo sapiens, UniProt O15111)
[16] = molecular target: DAPK1 (Homo sapiens, UniProt P53355)
[17] = molecular target: PLK4 (Homo sapiens, UniProt O00444)
[18] = molecular target: PRKAG1 (Homo sapiens, UniProt P54619)
[19] = molecular target: MAP2K5 (Homo sapiens, UniProt Q13163)
[20] = molecular target: PKMYT1 (Homo sapiens, UniProt Q99640)
[21] = molecular target: IKBKE (Homo sapiens, UniProt Q14164)

Measured: IC50

STRADA, sequence (Q7RTN6 whole entry): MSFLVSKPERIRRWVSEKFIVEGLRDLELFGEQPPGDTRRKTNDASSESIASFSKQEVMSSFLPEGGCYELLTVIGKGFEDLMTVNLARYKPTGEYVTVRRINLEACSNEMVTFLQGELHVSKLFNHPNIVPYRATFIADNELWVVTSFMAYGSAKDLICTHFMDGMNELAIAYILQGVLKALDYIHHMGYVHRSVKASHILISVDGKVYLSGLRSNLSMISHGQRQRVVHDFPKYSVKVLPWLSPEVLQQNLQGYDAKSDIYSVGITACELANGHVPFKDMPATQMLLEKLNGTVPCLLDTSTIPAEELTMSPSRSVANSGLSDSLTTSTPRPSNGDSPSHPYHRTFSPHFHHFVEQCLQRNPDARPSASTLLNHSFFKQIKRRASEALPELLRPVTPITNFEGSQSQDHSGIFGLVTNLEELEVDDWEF
PIK3C3, sequence (Q8NEB9 whole entry): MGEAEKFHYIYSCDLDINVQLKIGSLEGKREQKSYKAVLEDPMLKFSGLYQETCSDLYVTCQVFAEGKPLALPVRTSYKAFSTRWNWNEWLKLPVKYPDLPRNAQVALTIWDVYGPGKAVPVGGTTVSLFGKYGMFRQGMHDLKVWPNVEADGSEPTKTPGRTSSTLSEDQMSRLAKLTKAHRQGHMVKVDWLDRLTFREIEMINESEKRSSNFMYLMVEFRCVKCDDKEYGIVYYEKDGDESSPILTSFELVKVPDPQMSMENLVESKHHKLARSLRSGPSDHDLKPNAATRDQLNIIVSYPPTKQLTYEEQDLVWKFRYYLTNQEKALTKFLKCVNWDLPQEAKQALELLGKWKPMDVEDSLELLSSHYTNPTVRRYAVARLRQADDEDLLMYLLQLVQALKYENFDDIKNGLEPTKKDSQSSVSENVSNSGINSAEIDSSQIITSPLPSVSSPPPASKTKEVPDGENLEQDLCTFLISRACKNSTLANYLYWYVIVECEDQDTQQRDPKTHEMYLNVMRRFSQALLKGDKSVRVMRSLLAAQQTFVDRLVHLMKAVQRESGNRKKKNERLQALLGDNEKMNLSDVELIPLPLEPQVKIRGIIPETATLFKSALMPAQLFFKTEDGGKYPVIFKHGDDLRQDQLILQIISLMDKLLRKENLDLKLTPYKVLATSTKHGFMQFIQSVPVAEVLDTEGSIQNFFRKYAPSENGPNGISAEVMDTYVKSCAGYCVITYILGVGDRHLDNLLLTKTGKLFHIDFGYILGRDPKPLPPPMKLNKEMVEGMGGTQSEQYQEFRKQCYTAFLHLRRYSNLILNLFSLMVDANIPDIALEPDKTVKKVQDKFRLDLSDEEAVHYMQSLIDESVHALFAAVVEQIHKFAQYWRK
PLK1, sequence (P53350 whole entry): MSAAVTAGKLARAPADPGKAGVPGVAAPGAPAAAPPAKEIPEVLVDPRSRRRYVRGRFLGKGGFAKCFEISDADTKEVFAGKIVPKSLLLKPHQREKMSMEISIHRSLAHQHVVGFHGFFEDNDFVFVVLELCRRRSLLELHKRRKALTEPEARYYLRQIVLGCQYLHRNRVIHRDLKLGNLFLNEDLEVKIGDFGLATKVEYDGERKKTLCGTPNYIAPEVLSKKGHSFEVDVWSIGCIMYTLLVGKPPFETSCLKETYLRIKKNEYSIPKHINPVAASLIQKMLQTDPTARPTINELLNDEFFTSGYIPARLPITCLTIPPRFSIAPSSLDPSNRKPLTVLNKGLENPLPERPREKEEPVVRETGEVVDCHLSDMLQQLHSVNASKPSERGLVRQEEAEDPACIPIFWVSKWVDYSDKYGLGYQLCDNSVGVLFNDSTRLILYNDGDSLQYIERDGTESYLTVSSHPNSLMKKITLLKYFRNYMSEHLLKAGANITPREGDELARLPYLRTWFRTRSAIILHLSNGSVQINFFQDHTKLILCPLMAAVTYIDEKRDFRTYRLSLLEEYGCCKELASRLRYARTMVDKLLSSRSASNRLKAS
CHUK, sequence (O15111 whole entry): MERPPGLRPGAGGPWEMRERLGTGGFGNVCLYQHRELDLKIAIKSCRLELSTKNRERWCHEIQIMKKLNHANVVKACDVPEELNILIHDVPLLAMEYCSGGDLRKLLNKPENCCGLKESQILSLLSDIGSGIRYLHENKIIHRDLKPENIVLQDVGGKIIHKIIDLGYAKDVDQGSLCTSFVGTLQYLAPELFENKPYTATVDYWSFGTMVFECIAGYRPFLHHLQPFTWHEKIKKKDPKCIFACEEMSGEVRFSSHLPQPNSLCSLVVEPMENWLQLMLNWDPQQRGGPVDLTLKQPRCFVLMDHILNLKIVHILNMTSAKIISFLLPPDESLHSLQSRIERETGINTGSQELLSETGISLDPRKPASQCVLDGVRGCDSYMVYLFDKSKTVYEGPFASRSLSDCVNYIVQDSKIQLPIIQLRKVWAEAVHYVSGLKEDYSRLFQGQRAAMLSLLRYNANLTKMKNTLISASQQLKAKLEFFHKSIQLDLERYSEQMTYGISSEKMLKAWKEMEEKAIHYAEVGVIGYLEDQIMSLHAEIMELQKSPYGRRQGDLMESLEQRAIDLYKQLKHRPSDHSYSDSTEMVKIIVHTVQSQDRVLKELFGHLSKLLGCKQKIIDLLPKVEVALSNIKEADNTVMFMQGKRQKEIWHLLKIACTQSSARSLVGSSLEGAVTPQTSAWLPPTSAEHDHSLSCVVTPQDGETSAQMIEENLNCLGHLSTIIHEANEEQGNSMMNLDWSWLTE
ACVR1, sequence (Q04771 whole entry): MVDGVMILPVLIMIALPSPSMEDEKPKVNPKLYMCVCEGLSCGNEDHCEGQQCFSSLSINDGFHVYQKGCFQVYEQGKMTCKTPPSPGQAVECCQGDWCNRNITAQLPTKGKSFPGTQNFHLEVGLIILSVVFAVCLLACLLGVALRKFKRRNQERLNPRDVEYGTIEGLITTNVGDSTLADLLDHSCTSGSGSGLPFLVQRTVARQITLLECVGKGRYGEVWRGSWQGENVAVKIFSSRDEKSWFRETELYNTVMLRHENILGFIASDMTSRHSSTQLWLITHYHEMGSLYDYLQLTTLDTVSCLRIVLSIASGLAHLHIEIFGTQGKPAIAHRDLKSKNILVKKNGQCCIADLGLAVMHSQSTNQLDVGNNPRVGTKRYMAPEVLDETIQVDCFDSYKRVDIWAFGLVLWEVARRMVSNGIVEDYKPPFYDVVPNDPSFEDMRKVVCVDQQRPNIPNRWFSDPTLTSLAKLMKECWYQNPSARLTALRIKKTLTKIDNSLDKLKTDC
PLK4, sequence (O00444 whole entry): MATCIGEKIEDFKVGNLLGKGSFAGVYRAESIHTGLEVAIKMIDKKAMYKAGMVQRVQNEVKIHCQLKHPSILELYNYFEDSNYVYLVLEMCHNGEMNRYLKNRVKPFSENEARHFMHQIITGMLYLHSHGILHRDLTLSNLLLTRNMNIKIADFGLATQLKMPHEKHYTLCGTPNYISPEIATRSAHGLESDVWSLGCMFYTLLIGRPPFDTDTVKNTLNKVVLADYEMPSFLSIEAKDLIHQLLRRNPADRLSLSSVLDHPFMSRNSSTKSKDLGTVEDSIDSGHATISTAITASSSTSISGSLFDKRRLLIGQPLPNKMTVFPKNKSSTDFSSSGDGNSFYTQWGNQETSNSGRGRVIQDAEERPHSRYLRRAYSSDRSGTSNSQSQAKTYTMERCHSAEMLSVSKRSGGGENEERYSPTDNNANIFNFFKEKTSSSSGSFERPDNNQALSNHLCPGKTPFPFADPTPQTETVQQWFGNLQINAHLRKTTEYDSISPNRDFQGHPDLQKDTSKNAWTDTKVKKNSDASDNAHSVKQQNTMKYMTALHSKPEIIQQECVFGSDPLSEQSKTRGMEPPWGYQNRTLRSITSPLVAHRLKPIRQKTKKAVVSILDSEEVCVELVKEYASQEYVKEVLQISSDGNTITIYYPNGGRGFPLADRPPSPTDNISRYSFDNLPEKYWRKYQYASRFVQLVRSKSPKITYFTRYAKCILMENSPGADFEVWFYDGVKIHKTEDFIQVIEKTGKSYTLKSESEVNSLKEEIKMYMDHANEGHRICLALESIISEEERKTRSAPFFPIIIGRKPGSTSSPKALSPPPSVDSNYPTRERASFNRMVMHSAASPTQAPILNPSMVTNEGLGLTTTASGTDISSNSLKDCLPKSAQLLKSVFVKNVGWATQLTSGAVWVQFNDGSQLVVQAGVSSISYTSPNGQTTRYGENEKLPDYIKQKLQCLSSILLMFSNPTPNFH
TGFBR1, sequence (P36897 whole entry): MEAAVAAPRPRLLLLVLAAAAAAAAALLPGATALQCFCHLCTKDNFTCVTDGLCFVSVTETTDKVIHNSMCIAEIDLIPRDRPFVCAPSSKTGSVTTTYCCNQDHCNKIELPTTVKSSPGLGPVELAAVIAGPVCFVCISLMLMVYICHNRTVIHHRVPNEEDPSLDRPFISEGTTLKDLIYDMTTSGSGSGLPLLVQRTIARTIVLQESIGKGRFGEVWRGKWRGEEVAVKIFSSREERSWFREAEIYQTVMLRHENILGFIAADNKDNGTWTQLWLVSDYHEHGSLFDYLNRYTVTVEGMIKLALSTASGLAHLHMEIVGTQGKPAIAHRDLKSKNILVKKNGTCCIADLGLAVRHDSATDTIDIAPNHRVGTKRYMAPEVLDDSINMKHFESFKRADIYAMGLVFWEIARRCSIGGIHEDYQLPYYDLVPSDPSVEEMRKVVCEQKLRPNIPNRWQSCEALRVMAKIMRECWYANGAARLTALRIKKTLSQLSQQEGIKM

COc1nc(N[C@H]2CC[C@H](NS(=O)(=O)CC(C)C)CC2)nc2[nH]nc(N3CCOC[C@H]3C)c12 [compound 39, N-(trans-4-((4-Methoxy-3-((R)-3-methylmorpholino)-1H-pyrazolo[3,4-d]pyrimidin-6-yl)amino)cyclohexyl)-2-methylpropane-1-sulfonamide]
≥ 20 µM: all assays above
